Reference: PMC4659708 (Nature, 2015)

Columns and labels:
[1] = target: T1, α1 glycine receptor (GlyREM) (Danio rerio, UniProt O93430, DEL334-400/INS333AGT); assay: TEVC in Xenopus oocytes, block of glycine current at […]; type: cell-based; conditions: read-out: % inhibition at 1 mM
T1 sequence (O93430 with tags, fused parts or gaps INS333AGT/DEL334-400): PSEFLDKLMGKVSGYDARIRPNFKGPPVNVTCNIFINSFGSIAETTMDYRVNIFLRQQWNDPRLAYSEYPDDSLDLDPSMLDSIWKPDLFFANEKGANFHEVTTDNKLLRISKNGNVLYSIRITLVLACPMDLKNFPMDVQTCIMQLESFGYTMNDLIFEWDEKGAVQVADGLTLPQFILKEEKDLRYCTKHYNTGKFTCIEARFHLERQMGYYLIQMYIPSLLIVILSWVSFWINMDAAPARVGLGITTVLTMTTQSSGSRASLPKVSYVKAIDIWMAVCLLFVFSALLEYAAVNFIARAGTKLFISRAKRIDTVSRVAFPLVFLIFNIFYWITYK

[2] = target: T1, α1 glycine receptor (GlyREM); assay: TEVC in Xenopus oocytes, agonist activation; type: cell-based

C=C(C)[C@@H]1[C@H]2OC(=O)[C@@H]1[C@]1(O)C[C@H]3O[C@]34C(=O)O[C@H]2[C@]14C [ptx, picrotoxinin]
inhibition at 1000 µM [1]: ~80%

NCC(=O)O [gly, glycine]
EC50 [2]: 260 µM
